Test results as given in patent publication US20240180149A1, “FIRE ANT BAITS WITH ENHANCED SELECTIVITY” (The United States of America, as represented by the …, priority 2022, published 2024).
“Also recorded” adds a separate entry of the source.

Tests used:
fire ants [1] = assay: Multiple-choice field feeding bioassay on fire ants (soybean oil); format: in vivo, Solenopsis invicta; conditions: ten concentrations 0.015-6.6 mg/g in soybean oil, two sets (P=0.076; P=0.703), one-way ANOVA
Text: Ant feeding bioassays—Multiple-choice and a paired two-choice bioassays were used in this study. An exemplary schematic of the multichoice bioassay field feeding setup is shown in FIG. 1A, and an exemplary schematic of the two-choice bioassay field feeding setup is shown in FIG. 1B. Soybean oil was used as a food source for all the bioassays (Great Value, purchased from Walmart in Greenville Mississippi, USA). The feeding apparatus was a filtered 1-ml pipette tip with the part 0.5 cm below the filter removed. In multiple-choice bioassays, five concentrations of the test compounds were tested with untreated soybean oil as a control, and in two-choice bioassays, the compound at certain concentration was tested against the control oil. Eighty microliter soybean oil was loaded onto each filter. After being weighed, the apparatuses with oil were placed in the field for about 2 hours. The apparatuses were then collected and frozen under −40° C. to kill all ants. The apparatuses were weighed again after all ants were removed from the apparatuses. The difference in the weight of apparatuses before and after the feeding bioassays was the oil consumption. Feeding sites were at least 10 m away from each other for fire ants, and 3 m away for little black ants and for thief ants. […]

little black ants = assay: Two-choice field feeding bioassay on little black ants (soybean oil); format: in vivo, Monomorium minimum
Text: (§1) Ant feeding bioassays—Multiple-choice and a paired two-choice bioassays were used in this study. An exemplary schematic of the multichoice bioassay field feeding setup is shown in FIG. 1A, and an exemplary schematic of the two-choice bioassay field feeding setup is shown in FIG. 1B. Soybean oil was used as a food source for all the bioassays (Great Value, purchased from Walmart in Greenville Mississippi, USA). The feeding apparatus was a filtered 1-ml pipette tip with the part 0.5 cm below the filter removed. In multiple-choice bioassays, five concentrations of the test compounds were tested with untreated soybean oil as a control, and in two-choice bioassays, the compound at certain concentration was tested against the control oil. Eighty microliter soybean oil was loaded onto each filter. After being weighed, the apparatuses with oil were placed in the field for about 2 hours. The apparatuses were then collected and frozen under −40° C. to kill all ants. The apparatuses were weighed again after all ants were removed from the apparatuses. The difference in the weight of apparatuses before and after the feeding bioassays was the oil consumption. Feeding sites were at least 10 m away from each other for fire ants, and 3 m away for little black ants and for thief ants. The difference in oil consumption among/between treatment and control apparatuses was used to evaluate the effect of tested compound on the feeding of fire ants. For multiple-choice bioassays, a one-way ANOVA was performed to compare the effect of different concentrations of tested compound on the percentage of oil consumption. Tukey's HSD test was used for multiple comparisons. A paired t test was used in statistical analysis for the two-choice bioassays.
(§2) Two choice bioassays—Two-choice bioassays were conducted at six concentrations of trans-solenopsis A in soybean oil, including 6.6, 3.3, 1.7, 0.8, 0.4, and 0.2 mg/g for fire ants and little black ants, and four concentrations for thief ants including 6.6, 3.3, 1.7, and 0.8 mg/g. Feeding sites were selected using blank bait (untreated soybean oil in the feeding apparatuses). Blank baits were placed at the flagged sites for 30 minutes before the bioassay, and active feeding sites then used for the bioassays. Bioassays on fire ants were conducted in open area where most baits were hit by fire ants. Bioassays on little black ants and thief ants were conducted under the bushes, since baits under the bushes had more chances to be hit by little black ants or thief ants.

thief ants = assay: Two-choice field feeding bioassay on thief ants (soybean oil); format: in vivo, Solenopsis molesta
Text: as §1, §2

fire ants [2] = assay: Two-choice field feeding bioassay on fire ants (soybean oil); format: in vivo, Solenopsis invicta; conditions: two-choice vs control oil
Text: as §1
Two choice bioassays—Two-choice bioassays were conducted at six concentrations of trans-solenopsis A in soybean oil, including 6.6, 3.3, 1.7, 0.8, 0.4, and 0.2 mg/g for fire ants and little black ants, and four concentrations for thief ants including 6.6, 3.3, 1.7, and 0.8 mg/g. […]

[3] = two-choice vs control oil, 1.66 mg/g
[4] = two-choice vs control oil, 1.66 mg/g, listed as Trans-solenopsisn A
[5] = two-choice vs control oil, 3.3 mg/g
[6] = two-choice vs control oil, 3.3 mg/g, listed as Trans-solenopsisn A
[7] = two-choice vs control oil, 6.6 mg/g
[8] = two-choice vs control oil, 6.6 mg/g, listed as Trans-solenopsisn A

CCCCCCCCCCC[C@@H]1CCC[C@@H](C)N1 (relative stereo) [trans-solenopsin A]
effect on oil consumption by fire ants (fire ants [1]): no significant effect on oil consumption
inhibition of feeding by little black ants on soybean oil (little black ants; two-choice vs control oil, 0.42 mg/g, P=0.07): very close to be statistically significant
feeding by little black ants on soybean oil (little black ants; two-choice vs control oil, 0.83 mg/g): significantly inhibited the feeding
feeding by little black ants on soybean oil (little black ants; two-choice vs control oil, 0.83 mg/g, listed as Trans-solenopsisn A): significantly inhibited feeding
feeding by little black ants on soybean oil (little black ants; [3]): significantly inhibited the feeding
feeding by little black ants on soybean oil (little black ants; [4]): significantly inhibited feeding
feeding by little black ants on soybean oil (little black ants; [5]): significantly inhibited the feeding
feeding by little black ants on soybean oil (little black ants; [6]): significantly inhibited feeding
feeding by little black ants on soybean oil (little black ants; [7]): almost completely shut down; also recorded: significantly inhibited the feeding
feeding by little black ants on soybean oil (little black ants; [8]): significantly inhibited feeding; also recorded: almost completely inhibited
concentrations that significantly inhibited feeding by little black ants (little black ants; two-choice, paired t test, P<=0.045): > 0.42 mg/g
share of oil consumed by little black ants that was trans-solenopsin A treated (little black ants; two-choice, 3.3 mg/g): 9.63%
inhibition of feeding by thief ants on soybean oil (thief ants; two-choice vs control oil, 0.80 mg/g, P=0.14): not statistically significant
feeding by thief ants on soybean oil (thief ants; [3]): significantly inhibited the feeding
feeding by thief ants on soybean oil (thief ants; [4]): feeding inhibition was significant
feeding by thief ants on soybean oil (thief ants; [5]): significantly inhibited the feeding
feeding by thief ants on soybean oil (thief ants; [6]): feeding inhibition was significant
feeding by thief ants on soybean oil (thief ants; [7]): almost completely stopped; also recorded: completely shut down; also recorded: significantly inhibited the feeding
feeding by thief ants on soybean oil (thief ants; [8]): feeding inhibition was significant; also recorded: almost completely inhibited
share of oil consumed by thief ants that was trans-solenopsin A-treated (thief ants; two-choice, concentration not restated (previous sentence: 3.3 mg/g)): 1.52%
feeding preference of fire ants for soybean oil (fire ants [2]; 0.27 mg/g (270 ppm), P=0.049): fed preferentially on oil treated with trans-solenopsin A; also recorded: feed preferentially on soybean oil containing trans-solenopsin A
feeding preference of fire ants for soybean oil (fire ants [2]; 0.42 mg/g (420 ppm), P=0.0585): fed preferentially on oil treated with trans-solenopsin A; also recorded: feed preferentially on soybean oil containing trans-solenopsin A
feeding preference of fire ants for soybean oil (fire ants [2]; 6.6 mg/g (6600 ppm), P=0.39): did not significantly affect the feeding preference
